Data published in patent US7875604B2, “Compounds that inhibit HIV particle formation” (University of Virginia Patent Foundation, priority 2004, dated 2011).
Read-outs that look alike come from different tables or passages of the source.

Key:
[1] = test system: HIV particle formation in 5BD.1 cells; experiment: Six point dose response assay of HIV particle release (p24 ELISA) in 5BD.1 cells; assay type: cell-based, HIV-1; conditions: for TI (TC50/IC50): TC50 MT4 cells / IC50 5BD.1 cells; for IC50: six point dose response, p24 in 5BD.1 cells, Table 1
Source text: The present invention is directed to a safe quantitative in vitro high-throughput assay to screen library compounds for effects on Rev-dependent p24 production. Two cell lines derived from COS cells provide the means of determining whether a library compound has anti-Rev activity-5BD.1 and 2A.22. These cell lines constitutively express HIV-like particles that contain the HIV core proteins as well as HIV envelope protein. The non-infectious virions created by these cells are secreted into the media, where a simple p24 ELISA can quantitatively determine virion production. Production of these virus-like particles is totally dependent on the expression of the Rev protein (for the 5BD.1 cell line), which is also made in these cell lines, or independent of Rev protein expression (the 2A.22 cell line).
The cell line 5BD.1 was created by transfecting COS cells with the wild type HIV-1 structural and regulatory genes gag, gagpol, rev, and env. Each of these genes is necessary but not sufficient for producing infectious HIV virions. Non-infectious virions are produced in 5BD.1 cells via the same pathways as in CD4^+ cells. Inhibition of Rev with a library compound would therefore have the same effect on viral production in 5BD.1 cells as in CD4^+ cells.
Each of the 192 compounds was then subjected to 3 and 6 point dose response assays in 5BD.1 cells and toxicity testing in the MT-4 T cell line. The dose response assay was performed as follows
• 1. 5BD.1 cells were carried in 2 T175 flasks in medium (IMDM/10% FCS/0.2 mg/ml HygromycinB/1.5 mg/ml G418/0.05 mg/ml gentamycin). Cells were trypsinized and harvested from a 90% confluent flask. • 2. 20,000 cells per well were plated into rows A-G of 8 tissue culture treated clear 96-well plates in 135 μl per well of medium without G418 (assay medium). 135 μl of medium only was added to row H. • 3. The plates were placed into the incubator for one hour. • 4. Compounds were serially diluted 1:3 two times from 1 mM DMSO stocks in DMSO in 96 well polypropylene plates. 8 μl of the DMSO solutions were transferred to another plate and 72 μl of assay medium was added. • 5. 15 μl of each diluted compound was transferred to the cell plates in duplicate with the high (10 μM final concentration in rows A-B, 3 μM concentration in rows C-D, 1 μM concentration in rows E-F and DMSO only in rows G-H). • 6. The plates were then incubated overnight for 16 hours. • 7. In the morning of the next day the medium was removed by hand from all wells. • 8. 135 μl of fresh assay medium was added to each well followed by 15 μl of diluted compounds as described in step 5. • 9. The plates were then incubated for 24 hours and the medium was harvested. p24 ELISA Assay: • 10. Dilute primary antibody to 4 μg/ml in DPBS without calcium and magnesium, add 50 μl per well of a 96 well Maxisorp plate, incubate overnight at 4° C. • 11. Aspirate coating solution, block for 30-60 minutes with 200 μl ELISA buffer (4 mg/ml BSA, 0.01% Tween20 in DPBS without calcium and magnesium). • 12. Wash plates 2×. • 13. Add 50 μl of the supernatants from step 9 above. • 14. Add 15 μl of a 1:750 dilution of biotinylated secondary antibody in 40% lysis buffer/ELISA buffer. • 15. Incubate 2 hours at room temperature with shaking. • 16. Wash plates 3×. • 17. Add 50 μL/well of a 1:10,000 dilution of detection SA-HRP. Incubate at room temperature with shaking for 30 minutes. • 18. Wash plates 3×. Add 50 μL/well of TMB substrate solution to all wells and develop for approximately 15 minutes until blue. • 19. Stop the reaction with 50 μL/well 0.18M sulfuric acid. • 20. Read plate at 450 nm. Toxicity Assays:
The six point dose assay in 5BD.1 cells was used to calculate an IC50 for the compounds and data from the MT-4 toxicity assay allowed a TC50 to be calculated.

fresh human PBMCs = experiment: MTS staining for PBMC viability to measure cytotoxicity; assay type: cell-based
Method: For the standard PBMC assay, PHA-P stimulated cells from at least two normal donors were pooled (mixed together), diluted in fresh medium to a final concentration of 1×10^6 cells/mL, and plated in the interior wells of a 96 well round bottom microplate at 50 μL/well (5×10^4 cells/well) in a standard format developed by the Infectious Disease Research department of Southern Research Institute. Pooling (mixing) of mononuclear cells from more than one donor is used to minimize the variability observed between individual donors, which results from quantitative and qualitative differences in HIV infection and overall response to the PHA and IL-2 of primary lymphocyte populations. Each plate contains virus/cell control wells (cells plus virus), experimental wells (drug plus cells plus virus) and compound control wells (drug plus media without cells, necessary for MTS monitoring of cytotoxicity). Since HIV-1 is not cytopathic to PBMCs, this allows the use of the same assay plate for both antiviral activity and cytotoxicity measurements. Test drug dilutions were prepared at a 2× concentration in microtiter tubes and 100 μL of each concentration was placed in appropriate wells using the standard format. 50 μL of a predetermined dilution of virus stock was placed in each test well (final MOI≅0.1). The PBMC cultures were maintained for seven days following infection at 37° C., 5% CO2. After this period, cell-free supernatant samples were collected for analysis of reverse transcriptase activity as a measure of virus release. Following removal of supernatant samples, compound cytotoxicity was measured by addition of MTS to the plates for determination of cell viability. Wells were also examined microscopically and any abnormalities were noted.
At assay termination, assay plates were stained with the soluble tetrazolium-based dye MTS (CellTiter 96 Reagent, Promega) to determine cell viability and quantify compound toxicity. The mitochondrial enzymes of metabolically active cells metabolize MTS to yield a soluble formazan product. This allows the rapid quantitative analysis of cell viability and compound cytotoxicity. […] At termination of the assay, 20 μL of MTS reagent was added per well. The microtiter plates were then incubated 4-6 hrs at 37° C. The incubation intervals were chosen based on empirically determined times for optimal dye reduction. Adhesive plate sealers were used in place of the lids, the sealed plate was inverted several times to mix the soluble formazan product and the plate was read spectrophotometrically at 490/650 nm with a Molecular Devices Vmax or SpectraMaxPlus plate reader.
Compounds were tested in the PBMC assay using the maximum high-test concentration possible based on the supplied stocks which are listed in table 3. Compounds were prepared at a 2× high-test concentration by combining drug stock with tissue culture media at a ratio of 5 μL of drug to 995 μL of media. This 2× high-test sample was subsequently serially diluted in tissue culture media using 1/2 log dilutions. This series of 2× concentrated drug was subsequently diluted 1:1 by combining with an equal volume of cells in media in the 96-well plates used for the assay.

Row | Compound | TI (TC50/IC50) [1] | IC50 [1] [nM] | CC50 (fresh human PBMCs; PBMC plates with HIV-1 BR/93/021, MTS, read-out: TC50 (the source's name)) [µM] | CC50 (fresh human PBMCs; PBMC plates with HIV-1 NL4-3, MTS, read-out: TC50 (the source's name)) [µM] | IC50 ([1]; Human immunodeficiency virus 1) [nM] | CC50 (fresh human PBMCs; human, 7 days) [µM]
1 | 2-chloro-N-(4-methylphenyl)-4-(trifluoromethyl)-1,3-thazole-5-carboxamide [Compound 91161] | 9.47 | 1900 | 23.3 | 13.5 |  | 
2 | CCc1c(C(=O)Nc2ccccc2)c(C)nc2sc(C(N)=O)c(N)c12 [Compound 75168, 3-amino-4-ethyl-6-methyl-N˜5˜-phenylthieno[2,3-b]pyridine-2,5-dicarboxamide] | >33.3 |  |  |  | 3000 | 
3 | COc1ccc2cc3c(N)n[nH]c3nc2c1 [Compound 89246, 7-methoxy-1H-pyrazolo[3,4-b]quinolin-3-ylamine] | 22.22 |  |  |  | 900 | 
4 | CCc1c(C)nc2sc(C(N)=O)c(N)c2c1C [Compound 103833, 3-amino-5-ethyl-4,6-dimethylthieno[2,3-b]pyridine-2-carboxamide] | 35.6 |  |  |  | 900 | > 37.6
5 | COc1ccc2nc(C(F)(F)F)c(C#N)c(N)c2c1 [Compound 104366, 4-amino-6-methoxy-2-(trifluoromethyl)-3-quinolinecarbonitrile] | 11.2 |  |  |  | 2500 | 
6 | CS(=O)(=O)c1ncc(-c2ccc(Br)cc2)cn1 [Compound 107129, -(4-bromophenyl)-2-(methylsulfonyl)pyrimidine] | 40.0 |  |  |  | 250 | 
7 | COc1cccc(NC(=O)c2cc(Cl)nnc2Cl)c1 [Compound 107740, 3,6-dichloro-N-(3-methoxyphenyl)-4-pyridazinecarboxamide] | 10.2 |  |  |  | 4900 | 
8 | Fc1ccc(Nc2ncnc3ccccc23)cc1Cl [Compound 109020, N-(3-chloro-4-fluorophenyl)-N-(4-quinazolinyl)amine] | 33.3 |  |  |  | 3000 | > 40.8
